Test results as given in patent US20220306647A1, “NOVEL INDOLE-2-CARBOXAMIDES ACTIVE AGAINST THE HEPATITUS B VIRUS (HBV)” (AICURIS GMBH & CO. KG, priority 2019, published 2022).
pIC50: −log10 of the molar value.

Molecular target: T1, HBV core protein (C-terminal truncated core protein, 149 amino acids of the N-terminal assembly domain, BODIPY-FL labelled) (UniProt P03146)
T1 construct: fused on or other part: A single cysteine added after residue 149, at position 150; It carries the BODIPY-FL maleimide label
T1 sequence (P03146 whole entry, the tested form may be a part): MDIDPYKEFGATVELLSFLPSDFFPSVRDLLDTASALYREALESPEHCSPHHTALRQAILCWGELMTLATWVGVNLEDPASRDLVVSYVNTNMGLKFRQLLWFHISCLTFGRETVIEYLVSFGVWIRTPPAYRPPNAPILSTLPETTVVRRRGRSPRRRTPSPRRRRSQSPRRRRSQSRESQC
Assay: Biochemical capsid assembly assay (fluorescence quenching)
Conditions: assembly started with NaCl, fluorescence read after 6 min, read-out: Assembly activity
Description: The screening for assembly effector activity was done based on a fluorescence quenching assay published by Zlotnick et al. (2007). The C-terminal truncated core protein containing 149 amino acids of the N-terminal assembly domain fused to a unique cysteine residue at position 150 and was expressed in E. coli using the pET expression system (Merck Chemicals, Darmstadt). Purification of core dimer protein was performed using a sequence of size exclusion chromatography steps. In brief, the cell pellet from 1 L BL21 (DE3) Rosetta2 culture expressing the coding sequence of core protein cloned NdeI/XhoI into expression plasmid pET21b was treated for 1 h on ice with a native lysis buffer (Qproteome Bacterial Protein Prep Kit; Qiagen, Hilden). After a centrifugation step the supernatant was precipitated during 2 h stirring on ice with 0.23 g/ml of solid ammonium sulfate. Following further centrifugation the resulting pellet was resolved in buffer A (100 mM Tris, pH 7.5; 100 mM NaCl; 2 mM DTT) and was subsequently loaded onto a buffer A equilibrated CaptoCore 700 column (GE HealthCare, Frankfurt). The column flow through containing the assembled HBV capsid was dialyzed against buffer N (50 mM NaHCO3 pH 9.6; 5 mM DTT) before urea was added to a final concentration of 3M to dissociate the capsid into core dimers for 1.5 h on ice. The protein solution was then loaded onto a 1L Sephacryl S300 column. After elution with buffer N core dimer containing fractions were identified by SDS-PAGE and subsequently pooled and dialyzed against 50 mM HEPES pH 7.5; 5 mM DTT. To improve the assembly capacity of the purified core dimers a second round of assembly and disassembly starting with the addition of 5 M NaCl and including the size exclusion chromatography steps described above was performed. From the last chromatography step core dimer containing fractions were pooled and stored in aliquots at concentrations between 1.5 to 2.0 mg/ml at −80° C.
Immediately before labelling the core protein was reduced by adding freshly prepared DTT in a final concentration of 20 mM. After 40 min incubation on ice storage buffer and DTT was removed using a Sephadex G-25 column (GE HealthCare, Frankfurt) and 50 mM HEPES, pH 7.5. For labelling 1.6 mg/ml core protein was incubated at 4° C. and darkness overnight with BODIPY-FL maleimide (Invitrogen, Karlsruhe) in a final concentration of 1 mM. After labelling the free dye was removed by an additional desalting step using a Sephadex G-25 column. Labelled core dimers were stored in aliquots at 4° C. In the dimeric state the fluorescence signal of the labelled core protein is high and is quenched during the assembly of the core dimers to high molecular capsid structures. The screening assay was performed in black 384 well microtiter plates in a total assay volume of 10 μl using 50 mM HEPES pH 7.5 and 1.0 to 2.0 μM labelled core protein. Each screening compound was added in 8 different concentrations using a 0.5 log-unit serial dilution starting at a final concentration of 100 μM, 31.6 μM or 10 μM, In any case the DMSO concentration over the entire microtiter plate was 0.5%. The assembly reaction was started by the injection of NaCl to a final concentration of […] which induces the assembly process to approximately 25% of the maximal quenched signal. 6 min after starting the reaction the fluorescence signal was measured using a Clariostar plate reader (BMG Labtech, Ortenberg) with an excitation of 477 nm and an emission of 525 nm. As 100% and 0% assembly control HEPES buffer containing 2.5 M and 0 M NaCl was used. Experiments were performed thrice in triplicates. EC50 values were calculated by non-linear regression analysis using the Graph Pad Prism 6 software (GraphPad Software, La Jolla, USA).

Compound | pIC50
COC(=O)CN1C(=O)c2c3c(nn2CCC12CC2)CCN(C(=O)c1cc2ccccc2[nH]1)C3 [Example 149, methyl 2-[4′-(1H-indole-2-carbonyl)-14′-oxo-4′, 8′,9′,13′-tetraazaspiro[cyclopropane-1,12′-tricyclo[7.5.0.0^2,7]tetradecane]-1′,7′-dien-13′-yl]acetate] | > 5.30
O=C(c1cc2cc(F)c(F)cc2[nH]1)N1CCc2nn3c(c2C1)C(=O)N(CCO)C1(CC3)CC1 [Example 121, 4′-(5,6-difluoro-1H-indole-2-carbonyl)-13′-(2-hydroxyethyl)-4′, 8′,9′,13′-tetraazaspiro[cyclopropane-1,12′-tricyclo[7.5.0.0^2,7]tetradecane]-1′,7′-dien-14′-one] | > 5.30
O=C(c1cc2ccccc2[nH]1)N1CCc2nn3c(c2C1)C(=O)N(CCN1CCOCC1)C1(CC3)CC1 [Example 134, 4′-(1H-indole-2-carbonyl)-13′-[2-(morpholin-4-yl)ethyl]-4′,8′,9′,13′-tetraazaspiro[cyclopropane-1,12′-tricyclo[7.5.0.0^2,7]tetradecane]-1′,7′-dien-14′-one] | > 5.30
C[C@@H](NC(=O)c1ncn2c1CN(C(=O)c1cc3ccccc3[nH]1)CC2)C(F)(F)F [Example 138, 7-(1H-indole-2-carbonyl)-N-[(2R)-1,1,1-trifluoropropan-2-yl]-5H,6H,7H,8H-imidazo[1,5-a]pyrazine-1-carboxamide] | > 5.30
C[C@@H](NC(=O)c1noc2c1CN(C(=O)c1cc3c(F)cc(F)cc3[nH]1)CC2)C(F)(F)F [Example 112, 5-(4,6-difluoro-1H-indole-2-carbonyl)-N-[(2R)-1,1,1-trifluoropropan-2-yl]-4H,5H,6H,7H-[1,2]oxazolo[4,5-c]pyridine-3-carboxamide] | > 5.30
O=C(NC1(COC(F)F)CC1)c1onc2c1CN(C(=O)c1cc3cc(F)c(F)cc3[nH]1)CC2 [Example 141, 5-(5,6-difluoro-1H-indole-2-carbonyl)-N-{1-[(difluoromethoxy)methyl]cyclopropyl}-4H,5H,6H,7H-[1,2]oxazolo[4,3-c]pyridine-3-carboxamide] | > 5.30
O=C(c1cc2ccccc2[nH]1)N1CCc2nn3c(c2C1)C(=O)N(CCO)C1(CC1)C3 [Example 140, 4′-(2-hydroxyethyl)-12′-(1H-indole-2-carbonyl)-4′,7′,8′,12′-tetraazaspiro[cyclopropane-1,5′-tricyclo[7.4.0.0^2,7]tridecane]-1′,8′-dien-3′-one] | > 5.30
O=C(NC1(COC(F)F)CC1)c1onc2c1CN(C(=O)c1cc3cc(F)c(Cl)cc3[nH]1)CC2 [Example 144, 5-(6-chloro-5-fluoro-1H-indole-2-carbonyl)-N-{1-[(difluoromethoxy)methyl]cyclopropyl}-4H,5H,6H,7H-[1,2]oxazolo[4,3-c]pyridine-3-carboxamide] | > 5.30
O=C(O)c1cnc(C2(NC(=O)c3cnn4c3CN(C(=O)c3cc5ccccc5[nH]3)CC4)CC2)nc1 [Example 20, 2-{1-[5-(1H-indole-2-carbonyl)-4H,5H,6H,7H-pyrazolo[1,5-a]pyrazine-3-amido]cyclopropyl}pyrimidine-5-carboxylic acid] | > 5.30
O=C(c1cc2cc(F)c(Cl)cc2[nH]1)N1CCc2nn3c(c2C1)C(=O)N(CCO)C1(CC3)CC1 [Example 122, 4′-(6-chloro-5-fluoro-1H-indole-2-carbonyl)-13′-(2-hydroxyethyl)-4′,8′,9′,13′-tetraazaspiro[cyclopropane-1,12′-tricyclo[7.5.0.0^2,7]tetradecane]-1′,7′-dien-14′-one] | > 5.30
C[C@@H](NC(=O)c1onc2c1CN(C(=O)c1cc3c(Cl)cccc3[nH]1)CC2)C(F)(F)F [Example 118, 5-(4-chloro-1H-indole-2-carbonyl)-N-[(2R)-1,1,1-trifluoropropan-2-yl]-4H,5H,6H,7H-[1,2]oxazolo[4,3-c]pyridine-3-carboxamide] | > 5.30
Cc1c(F)ccc2[nH]c(C(=O)N3CCn4ncc(C(=O)N(C)C5(c6ncc(C(=O)O)cn6)CC5)c4C3)cc12 [Example 59, 2-{1-[N-methyl-5-(5-fluoro-4-methyl-1H-indole-2-carbonyl)-4H,5H,6H,7H-pyrazolo[1,5-a]pyrazine-3-amido]cyclopropyl}pyrimidine-5-carboxylic acid] | > 5.30
CN1CCCn2nc3c(c2C1=O)CN(C(=O)c1cc2ccccc2[nH]1)CC3 [Example 139, 4-(1H-indole-2-carbonyl)-13-methyl-4,8,9,13-tetraazatricyclo[7.5.0.0^2,7]tetradeca-1,7-dien-14-one] | > 5.30
COCCN1C(=O)c2c3c(nn2CCC12CC2)CCN(C(=O)c1cc2ccccc2[nH]1)C3 [Example 123, 4′-(1H-indole-2-carbonyl)-13′-(2-methoxyethyl)-4′, 8′,9′,13′-tetraazaspiro[cyclopropane-1,12′-tricyclo[7.5.0.0^2,7]tetradecane]-1′,7′-dien-14′-one] | > 5.30
CN(C)CCN1C(=O)c2c3c(nn2CCC12CC2)CCN(C(=O)c1cc2ccccc2[nH]1)C3 [Example 124, 13′-[2-(dimethylamino)ethyl]-4′-(1H-indole-2-carbonyl)-4′,8′,9′,13′-tetraazaspiro[cyclopropane-1,12′-tricyclo[7.5.0.0^2,7]tetradecane]-1′,7′-dien-14′-one] | 5.00 to 5.30
CN1CCN(CCN2C(=O)c3c4c(nn3CCC23CC3)CCN(C(=O)c2cc3ccccc3[nH]2)C4)CC1 [Example 125, 4′-(1H-indole-2-carbonyl)-13′-[2-(4-methylpiperazin-1-yl)ethyl]-4′,8′,9′,13′-tetraazaspiro[cyclopropane-1,12′-tricyclo[7.5.0.0^2,7]tetradecane]-1′,7′-dien-14′-one] | > 5.30
Cc1cc(F)cc2[nH]c(C(=O)N3CCc4n[nH]c(C(=O)N(C)C5(c6ncc(C(=O)O)cn6)CC5)c4C3)cc12 [Example 73, 2-{1-[N-methyl-5-(6-fluoro-4-methyl-1H-indole-2-carbonyl)-2H,4H,5H,6H,7H-pyrazolo[4,3-c]pyridine-3-amido]cyclopropyl}pyrimidine-5-carboxylic acid] | > 5.30
Cc1c(F)ccc2[nH]c(C(=O)N3CCc4n[nH]c(C(=O)N(C)C5(c6ccc(C(=O)O)cc6)CC5)c4C3)cc12 [Example 66, 4-{1-[N-methyl-5-(5-fluoro-4-methyl-1H-indole-2-carbonyl)-2H,4H,5H,6H,7H-pyrazolo[4,3-c]pyridine-3-amido]cyclopropyl}benzoic acid] | > 5.30
O=C(NC1(COC(F)F)CC1)c1onc2c1CN(C(=O)c1cc3ccccc3[nH]1)CC2 [Example 132, N-{1-[(difluoromethoxy)methyl]cyclopropyl}-5-(1H-indole-2-carbonyl)-4H,5H,6H,7H-[1,2]oxazolo[4,3-c]pyridine-3-carboxamide] | > 5.30
CN(C(=O)c1[nH]nc2c1CN(C(=O)c1cc3ccccc3[nH]1)CC2)C1(c2ncc(C(=O)O)cn2)CC1 [Example 56, 2-{1-[N-methyl-5-(1H-indole-2-carbonyl)-2H,4H,5H,6H,7H-pyrazolo[4,3-c]pyridine-3-amido]cyclopropyl}pyrimidine-5-carboxylic acid] | 5.00 to 5.30
C[C@@H](NC(=O)c1noc2c1CN(C(=O)c1cc3cc(F)c(F)cc3[nH]1)CC2)C(F)(F)F [Example 111, 5-(5,6-difluoro-1H-indole-2-carbonyl)-N-[(2R)-1,1,1-trifluoropropan-2-yl]-4H,5H,6H,7H-[1,2]oxazolo[4,5-c]pyridine-3-carboxamide] | > 5.30
CN(C(=O)c1cnn2c1CN(C(=O)c1cc3c(F)c(F)ccc3[nH]1)CC2)C1(c2ncc(C(=O)O)cn2)CC1 [Example 58, 2-{1-[N-methyl-5-(4,5-difluoro-1H-indole-2-carbonyl)-4H,5H,6H,7H-pyrazolo[1,5-a]pyrazine-3-amido]cyclopropyl}pyrimidine-5-carboxylic acid] | > 5.30
